The test system of experiment [1] is guinea pig tracheal chain preparations. Put plainly: spontaneous tone of guinea pig tracheal chain (ring) preparation, relaxant effect. Conditions: for absolute separation ratio: atrial ED25 versus tracheal ED50, guinea pig in vitro preparations. The text has this: (§1) Two in vitro test systems used for determining selective β-stimulant activity are: (1) effect on spontaneous tone of guinea pig tracheal chain preparations as a measure of β-stimulant (direct relaxant) effect on airway smooth muscle, and (2) effect on rate of spontaneously beating right atria of the guinea pig as a measure of β-stimulant effect on cardiac muscle.

In experiment [2] the test system is right atria of the guinea pig. Put plainly: rate of spontaneously beating guinea pig right atria. The conditions noted are these: Cavia porcellus; in vitro; β-stimulant effect on cardiac muscle; read-out: ED25, increasing the rate of contraction of guinea pig right atria.
Source text: as §1

Here are results for two compounds from patent US4013777A, “Bis-phenoxypropanolamines” (SmithKline Corporation, priority 1975, dated 1977).

Converted amounts (≈) assume the structure as drawn.

In the case of `CC(C)NCC(O)c1ccc(O)c(O)c1` (racemic) [d,l isoproterenol, reference compound], in experiment [1], the absolute separation ratio is listed as 0.5.

Regarding `Oc1ccc(OCC(O)CNCCCCCCNCC(O)COc2ccc(O)c(O)c2)cc1O` (centres unmarked) [N,N'-bis[3,4-dihydroxyphenoxy)-2-hydroxypropyl]-1,6-diaminohexane], in experiment [1] (Cavia porcellus, in vitro, β-stimulant (direct relaxant) effect on airway smooth muscle, read-out: ED50, relaxes the spontaneous tone of guinea pig tracheal ring preparation), the EC50 stood at 0.00414 µg/mL (≈ 0.00861 µM). In addition, the absolute separation ratio in experiment [1] is 7. Besides, the “improvement of absolute separation ratio compared to d,l isoproterenol” value in experiment [1] (versus d,l isoproterenol in similar in vitro preparations) is listed as 14 fold. In experiment [2], the EC25 is 0.029 µg/mL (≈ 0.0603 µM).
